The target in one experiment is T1, Cbl-b (Homo sapiens, UniProt Q13191).
T1 construct: biotin (biotinylated)
As to the kind of experiment: Cbl-b probe displacement HTRF binding assay. Particulars: 0.4 nM biotinylated Cbl-b, 150 nM BODIPY probe. The procedure:
The affinity with which compounds of the present disclosure bind to Cbl-b was assessed using probe displacement homologous time resolved fluorescence (HTRF) assays. The assays used a BODIPY™ conjugated probe (Example 54 from WO 2020264398) and biotinylated Cbl-b. The assays were performed in assay buffer consisting of 20 mM Hepes, 150 mM NaCl, 0.01% Triton X-100, 0.5 mM TCEP, 0.01% BSA. On the day of the assay, a 20 point, 1:2 master serial dilution of each compound was prepared in DMSO to span a final concentration range of 10 μM to 0 nM. Two hundred nanoliters of diluted compound was added to each well of a 384-well plate. Fifteen microliters of biotinylated—Cbl-b resuspended in assay buffer were added to each well and the plate incubated for 60 minutes at room temperature prior to addition of 5 μL of BODIPY™ probe in assay buffer. Final assay conditions included 0.4 nM of Cbl-b and 150 nM of BODIPY™ probe. After a further 15 minutes of incubation at room temperature, 5 μl of Streptavidin-Terbium cryptate reagent at 5-fold final concentration was added to each well of the 384-well plate. Binding of a probe to Cbl-b results in an increase of HTRF signal. HTRF signal was measured by Envision plate reader, while competition of a compound of the present disclosure with probe results in a decrease of signal. Percentage maximum activity in each test well was calculated based on DMSO (maximum activity, 0% displacement) and no protein control wells (baseline activity, 100% displacement). Binding affinity was determined from a dose response curve fitted using a standard four parameter fit equation. See Table 3 for data for compounds (Cbl-b Binding (IC50)).
In general terms: TR-FRET usually uses a lanthanide donor and a delayed reading to cut background.

Another experiment has as its system Jurkat cells. The experiment in a line: IL-2 secretion assay in CD3/CD28-activated Jurkat cells (AlphaLISA). As to conditions: Homo sapiens, CD3/CD28 T Cell Activator, 24 h, IL-2 AlphaLISA. The class given is cell-based, human. As to the method: Certain compounds were also evaluated in an IL-2 secretion assay. On the day of the assay, a 16 point, 1:2 master serial dilution of each compound was prepared in Opti-MEM to span a final concentration range of 10 μM to 300 pM. Assays were setup in CORNING® tissue culture-treated 384-well microplates containing 60 nL of each dilution. Jurkat cells grown in RPMI-1640 supplemented with 10% FBS, 1% Glutamax, and 1% Pen/Strep were collected, resuspended in Opti-MEM. 50,000 cells/well and added to the compound plates. After a short spin (1200 rpm for 1 min), the plates were incubated at 37° C. for 1 hour. The cells were activated by adding 15 μL of IMUNOCULT™ Human CD3/CD28 T Cell Activator (STEMCELL Technologies) diluted in Opti-MEM. After 24 h of incubation at 37° C., aliquots of culture supernatants were transferred to OptiPlate-384 (PerkinElmer) microplates. The level of IL-2 secretion in the supernatants was then determined using the IL-2 (human) AlphaLISA Detection Kit (PerkinElmer) according to the manufacturer's recommendations. The AlphaLISA signal was measured using an EnVision plate reader (PerkinElmer). EC50 values were determined by fitting the data to a standard 4-parameter logistic equation. See Table 3 for data for select compounds (IL-2 Secretion (EC50)).

T1 sequence (Q13191 whole entry, species assumed): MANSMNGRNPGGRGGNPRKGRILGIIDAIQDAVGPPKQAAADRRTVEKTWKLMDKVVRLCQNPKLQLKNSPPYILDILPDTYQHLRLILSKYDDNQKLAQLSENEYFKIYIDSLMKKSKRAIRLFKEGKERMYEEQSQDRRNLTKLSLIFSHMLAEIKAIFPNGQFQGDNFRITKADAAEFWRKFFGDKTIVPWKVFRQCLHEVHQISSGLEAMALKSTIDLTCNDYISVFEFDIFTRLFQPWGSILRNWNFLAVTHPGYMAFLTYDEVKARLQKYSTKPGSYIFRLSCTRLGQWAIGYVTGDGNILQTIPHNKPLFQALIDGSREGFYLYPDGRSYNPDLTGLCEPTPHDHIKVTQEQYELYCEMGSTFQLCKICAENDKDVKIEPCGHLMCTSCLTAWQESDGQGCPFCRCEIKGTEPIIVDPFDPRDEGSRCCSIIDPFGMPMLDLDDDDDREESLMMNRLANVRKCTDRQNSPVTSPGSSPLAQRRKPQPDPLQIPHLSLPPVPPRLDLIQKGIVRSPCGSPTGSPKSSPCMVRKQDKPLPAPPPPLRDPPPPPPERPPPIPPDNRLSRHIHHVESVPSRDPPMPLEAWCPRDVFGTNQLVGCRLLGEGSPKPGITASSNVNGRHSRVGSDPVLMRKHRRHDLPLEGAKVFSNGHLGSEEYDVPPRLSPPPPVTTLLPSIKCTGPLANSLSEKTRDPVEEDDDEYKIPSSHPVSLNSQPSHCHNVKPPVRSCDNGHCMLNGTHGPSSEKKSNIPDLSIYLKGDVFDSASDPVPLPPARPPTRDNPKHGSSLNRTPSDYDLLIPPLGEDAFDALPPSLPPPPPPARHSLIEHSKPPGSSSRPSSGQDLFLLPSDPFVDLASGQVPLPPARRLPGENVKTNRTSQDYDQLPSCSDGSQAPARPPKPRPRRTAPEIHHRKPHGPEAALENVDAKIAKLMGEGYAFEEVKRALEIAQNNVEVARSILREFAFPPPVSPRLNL

Regarding `COc1cc(-c2ccc(F)cc2-c2nncn2C)cc(-n2cc(C3CC3)c3cc(CN4CCC[C@H](C)C4)[nH]c3c2=O)n1` [Example 8, 2-{[(S)-3-Methyl-1-piperidyl]methyl}-4-cyclopropyl-6-{4-[4-fluoro-2-(4-methyl-4H-1,2,4-triazol-3-yl)phenyl]-6-methoxy-2-pyridyl}-1,6-dihydro-1,6-diaza-7-indenone], the IC50 (usually the point on the concentration scale where inhibition reaches its midpoint) on Cbl-b is less than 100 nM. The EC50 (as a rule, the midpoint of the concentration-response curve) in the experiment with Jurkat cells is less than 100 nM.
For `CCOc1cc(-c2ccc(F)cc2-c2nncn2C)cc(-n2cc(C3CC3)c3cc(CN4CCC[C@H](C)C4)[nH]c3c2=O)n1` [Example 9, 2-{[(S)-3-Methyl-1-piperidyl]methyl}-4-cyclopropyl-6-{6-ethoxy-4-[4-fluoro-2-(4-methyl-4H-1,2,4-triazol-3-yl)phenyl]-2-pyridyl}-1,6-dihydro-1,6-diaza-7-indenone], the IC50 on Cbl-b was less than 100 nM. The molecule further displayed an EC50 in the experiment with Jurkat cells of less than 100 nM.
On to `CCNc1cc(-c2ccc(F)cc2-c2nncn2C)cc(-n2cc(C3CC3)c3cc(CN4CCC[C@H](C)C4)[nH]c3c2=O)n1` [Example 11, 2-{[(S)-3-methyl-1-piperidyl]methyl}-4-cyclopropyl-6-{6-(ethylamino)-4-[4-fluoro-2-(4-methyl-4H-1,2,4-triazol-3-yl)phenyl]-2-pyridyl}-1,6-dihydro-1,6-diaza-7-indenone], for which the IC50 on Cbl-b was less than 100 nM. In the experiment on Jurkat cells, this molecule returned an EC50 of less than 100 nM.
`C[C@H]1CCCN(Cc2cc3c(C4CC4)cn(-c4cc(-c5ccc(F)cc5-c5nncn5C)ccn4)c(=O)c3[nH]2)C1` [Example 12, 2-{[(S)-3-Methyl-1-piperidyl]methyl}-4-cyclopropyl-6-{4-[4-fluoro-2-(4-methyl-4H-1,2,4-triazol-3-yl)phenyl]-2-pyridyl}-1,6-dihydro-1,6-diaza-7-indenone] registered an IC50 on Cbl-b of less than 100 nM. In the experiment with Jurkat cells, this molecule gave an EC50 of 100 to 1000 nM.
Molecule `[2H]C([2H])([2H])n1ccnc1-c1cc(C#N)ccc1-c1cc(C2CC2)nc(-n2cc(C3CC3)c3cc(CN4CCC[C@H](C)C4)[nH]c3c2=O)c1` [Example 14, 4-[2-(2-{[(S)-3-methyl-1-piperidyl]methyl}-4-cyclopropyl-7-oxo-1,6-dihydro-1,6-diaza-6-indenyl)-6-cyclopropyl-4-pyridyl]-3-{1-[(^2H3)methyl]-2-imidazolyl}benzonitrile] had an IC50 at Cbl-b of less than 100 nM. For the same molecule, the EC50 in the experiment on Jurkat cells was less than 100 nM.
Consider `C[C@H]1CCCN(Cc2cc3c(C4CC4)cn(-c4cc(-c5ccc(C#N)cc5-c5nccn5C(F)F)cc(C5CC5)n4)c(=O)c3[nH]2)C1` [Example 15, 4-[2-(2-{1[(S)-3-methyl-1-piperidyl]methyl}-4-cyclopropyl-7-oxo-1,6-dihydro-1,6-diaza-6-indenyl)-6-cyclopropyl-4-pyridyl]-3-[1-(difluoromethyl)-2-imidazolyl]benzonitrile], for which the IC50 on Cbl-b was less than 100 nM. In the experiment on Jurkat cells, this molecule gave an EC50 of less than 100 nM.
Molecule `C[C@H]1CCCN(Cc2cc3c(C4CC4)cn(-c4cc(-c5ccc(C#N)cc5-c5nccn5C)cc(C(F)(F)F)n4)c(=O)c3[nH]2)C1` [Example 16, 4-[2-(2-{[(S)-3-methyl-1-piperidyl]methyl}-4-cyclopropyl-7-oxo-1,6-dihydro-1,6-diaza-6-indenyl)-6-(trifluoromethyl)-4-pyridyl]-3-(1-methyl-2-imidazolyl)benzonitrile] yielded an IC50 at Cbl-b of less than 100 nM. In addition, the EC50 with Jurkat cells was less than 100 nM.
With `C[C@H]1CCCN(Cc2cc3c(C4CC4)cn(-c4cccc(-c5ccc(F)cc5-c5nccn5C)c4)c(=O)c3[nH]2)C1` [Example 17, 4-cyclopropyl-6-[3-[4-fluoro-2-(1-methylimidazol-2-yl)phenyl]phenyl]-2-[[(3S)-3-methylpiperidin-1-yl]methyl]-1H-pyrrolo[2,3-c]pyridin-7-one], the IC50 at Cbl-b was less than 100 nM. In the experiment on Jurkat cells, this molecule registered an EC50 of 100 to 1000 nM.
The corresponding values for `Cc1c[nH]nc1-c1cc(C#N)ccc1-c1cc(C2CC2)nc(-n2cc(C3CC3)c3cc(CN4C[C@@H]5C[C@H]4CN5)[nH]c3c2=O)c1` [Example 18, 4-[2-cyclopropyl-6-[4-cyclopropyl-2-[[(1S,4S)-2,5-diazabicyclo[2.2.1]-heptan-2-yl]methyl]-7-oxo-1H-pyrrolo[2,3-c]pyridin-6-yl]pyridin-4-yl]-3-(4-methyl-1H-pyrazol-3-yl)benzonitrile] are less than 100 nM and 1000 to 5000 nM.
On to `Cc1c[nH]nc1-c1cc(C#N)ccc1-c1cc(C2CC2)nc(-n2cc(C3CC3)c3cc(CN4CCC[C@H](C)C4)[nH]c3c2=O)c1` [Example 19, 4-[2-cyclopropyl-6-[4-cyclopropyl-2-[[(3S)-3-methylpiperidin-1-yl]methyl]-7-oxo-1H-pyrrolo[2,3-c]pyridin-6-yl]pyridin-4-yl]-3-(4-methyl-1H-pyrazol-3-yl)benzonitrile], for which, on Cbl-b, the IC50 is less than 100 nM. Moreover, the EC50 in the experiment with Jurkat cells was less than 100 nM.
With `Cc1c[nH]nc1-c1cc(C#N)ccc1-c1cc(C2CC2)nc(-n2cc(C3CC3)c3cc(CNCC4(O)CCC4)[nH]c3c2=O)c1` [Example 20, 4-[2-cyclopropyl-6-[4-cyclopropyl-2-[[(1-hydroxycyclobutyl)methylamino]-methyl]-7-oxo-1H-pyrrolo[2,3-c]pyridin-6-yl]pyridin-4-yl]-3-(4-methyl-1H-pyrazol-3-yl)benzonitrile], the IC50 on Cbl-b is less than 100 nM. The molecule further yielded an EC50 in the experiment on Jurkat cells of 100 to 1000 nM.
`Cc1c[nH]nc1-c1cc(F)ccc1-c1cccc(-n2cc(C3CC3)c3cc(CN4CCC[C@H](C)C4)[nH]c3c2=O)c1` [Example 21, 4-cyclopropyl-6-[3-[4-fluoro-2-(4-methyl-1H-pyrazol-3-yl)phenyl]phenyl]-2-[[(3S)-3-methylpiperidin-1-yl]methyl]-1H-pyrrolo[2,3-c]pyridin-7-one] displayed an IC50 on Cbl-b of less than 100 nM. In the experiment with Jurkat cells, the EC50 fell in the range of 100 to 1000 nM.
With `Cc1c[nH]nc1-c1cc(C#N)ccc1-c1cc(C2CC2)nc(-n2cnc3cc(CN4CCC[C@H](C)C4)[nH]c3c2=O)c1` [Example 22, 4-[2-cyclopropyl-6-[6-[[(3S)-3-methylpiperidin-1-yl]methyl]-4-oxo-5H-pyrrolo[3,2-d]pyrimidin-3-yl]pyridin-4-yl]-3-(4-methyl-1H-pyrazol-3-yl)benzonitrile], the IC50 on Cbl-b is less than 100 nM. This molecule yielded an EC50 in the experiment on Jurkat cells of less than 100 nM.
With `C[C@H]1CCCN(Cc2cc3c(C4CC4)cn(-c4cc(-c5ccc(F)cc5-c5cncn5C)cc(Cl)n4)c(=O)c3[nH]2)C1` [Example 23, 2-{[(S)-3-methyl-1-piperidyl]methyl}-6-{6-chloro-4-[4-fluoro-2-(1-methyl-5-imidazolyl)phenyl]-2-pyridyl}-4-cyclopropyl-1,6-dihydro-1,6-diaza-7-indenone], the IC50 at Cbl-b was 1000 to 5000 nM. The molecule also yielded an EC50 with Jurkat cells greater than 5000 nM.
In turn, `C[C@H]1CCCN(Cc2cc3c(C4CC4)cn(-c4cc(-c5ccc(F)cc5-c5cncn5C)cc(C5CC5)n4)c(=O)c3[nH]2)C1` [Example 24, 2-{[(S)-3-Methyl-1-piperidyl]methyl}-4-cyclopropyl-6-{6-cyclopropyl-4-[4-fluoro-2-(1-methyl-5-imidazolyl)phenyl]-2-pyridyl}-1,6-dihydro-1,6-diaza-7-indenone] showed an IC50 at Cbl-b of 100 to 1000 nM. This molecule had an EC50 in the experiment on Jurkat cells of 1000 to 5000 nM.
The molecule `C[C@H]1CCCN(Cc2cc3c(C4CC4)cn(-c4cc(-c5c(-c6nncn6C)cnn5C)cc(Cl)n4)c(=O)c3[nH]2)C1` [Example 25, 2-{[(S)-3-Methyl-1-piperidyl]methyl}-6-{6-chloro-4-[1-methyl-4-(4-methyl-4H-1,2,4-triazol-3-yl)-5-pyrazolyl]-2-pyridyl}-4-cyclopropyl-1,6-dihydro-1,6-diaza-7-indenone] registered an IC50 on Cbl-b of less than 100 nM. Besides, the EC50 with Jurkat cells was less than 100 nM.

Source of the values: patent publication US20250011318A1 (ARCUS BIOSCIENCES, INC., priority 2023, published 2025).
